Source: ChEMBL document CHEMBL1143353, “Pyrazolo[1,5-a]-1,3,5-triazine as a purine bioisostere: access to potent cyclin-dependent kinase inhibitor (R)-roscovitine analogue” (J Med Chem, 2009)

Assays:
[1] = test system: CCRF-CEM; experiment: cells; details: Homo sapiens, 72 h
Description: Antiproliferative activity against human CCRF-CEM cells after 72 hrs by ViaLight assay

[2] = test system: U-937; experiment: Antiproliferative activity against human U937 cells after 72 hrs by ViaLight assay; format: functional, cell-based
[3] = test system: SW-620; experiment: cells; details: Homo sapiens, SW-620, 72 h
Description: Antiproliferative activity against human SW620 cells after 72 hrs by ViaLight assay

[4] = test system: OVCAR-8; experiment: Antiproliferative activity against human OVCAR8 cells after 72 hrs by ViaLight assay; format: functional; details: OVCAR-8, 72 h
[5] = target: Cyclin-dependent kinase 5/CDK5 activator 1 (Homo sapiens, UniProt Q00535)
Description: Inhibition of human recombinant CDK5/p25 expressed in Escherichia coli

[6] = test system: SK-MEL-28; experiment: Antiproliferative activity against human SK-MEL-28 cells after 72 hrs by ViaLight assay; format: functional; details: SK-MEL-28, 72 h
[7] = test system: SN12C; experiment: Antiproliferative activity against human SN12C cells after 72 hrs by ViaLight assay; format: functional
[8] = target: CDK9/cyclin T1 (Homo sapiens, UniProt P50750); experiment: Inhibition of human recombinant CDK9/cyclin T expressed in baculovirus-infected insect cells
[9] = test system: BT-549; experiment: Antiproliferative activity against human BT549 cells after 72 hrs by ViaLight assay; format: functional; details: BT-549, 72 h
[10] = read-out: LC50 (the source's name)
[11] = read-out: pLC50 (the source's name) (converted)

Sequence of Cyclin-dependent kinase 5/CDK5 activator 1 (Q00535 whole entry): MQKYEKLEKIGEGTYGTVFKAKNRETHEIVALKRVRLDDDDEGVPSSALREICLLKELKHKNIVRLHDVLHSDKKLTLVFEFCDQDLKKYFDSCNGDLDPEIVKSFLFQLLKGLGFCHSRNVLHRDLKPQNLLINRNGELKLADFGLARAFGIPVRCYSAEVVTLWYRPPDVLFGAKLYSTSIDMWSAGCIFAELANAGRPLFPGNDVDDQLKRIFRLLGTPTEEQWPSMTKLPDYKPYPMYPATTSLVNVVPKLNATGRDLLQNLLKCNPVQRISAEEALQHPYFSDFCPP
Sequence of Cyclin-dependent kinase 5/CDK5 activator 1 (Q15078 whole entry, further chain): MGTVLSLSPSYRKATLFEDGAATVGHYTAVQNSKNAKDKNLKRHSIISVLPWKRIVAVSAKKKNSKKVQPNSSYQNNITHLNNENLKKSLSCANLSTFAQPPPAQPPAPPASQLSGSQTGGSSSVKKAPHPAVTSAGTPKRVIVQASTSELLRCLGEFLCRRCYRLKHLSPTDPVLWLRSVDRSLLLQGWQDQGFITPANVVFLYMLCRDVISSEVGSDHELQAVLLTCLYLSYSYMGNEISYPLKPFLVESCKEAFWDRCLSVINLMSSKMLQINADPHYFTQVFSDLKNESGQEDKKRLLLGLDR
Sequence of CDK9/cyclin T1 (O60563 whole entry): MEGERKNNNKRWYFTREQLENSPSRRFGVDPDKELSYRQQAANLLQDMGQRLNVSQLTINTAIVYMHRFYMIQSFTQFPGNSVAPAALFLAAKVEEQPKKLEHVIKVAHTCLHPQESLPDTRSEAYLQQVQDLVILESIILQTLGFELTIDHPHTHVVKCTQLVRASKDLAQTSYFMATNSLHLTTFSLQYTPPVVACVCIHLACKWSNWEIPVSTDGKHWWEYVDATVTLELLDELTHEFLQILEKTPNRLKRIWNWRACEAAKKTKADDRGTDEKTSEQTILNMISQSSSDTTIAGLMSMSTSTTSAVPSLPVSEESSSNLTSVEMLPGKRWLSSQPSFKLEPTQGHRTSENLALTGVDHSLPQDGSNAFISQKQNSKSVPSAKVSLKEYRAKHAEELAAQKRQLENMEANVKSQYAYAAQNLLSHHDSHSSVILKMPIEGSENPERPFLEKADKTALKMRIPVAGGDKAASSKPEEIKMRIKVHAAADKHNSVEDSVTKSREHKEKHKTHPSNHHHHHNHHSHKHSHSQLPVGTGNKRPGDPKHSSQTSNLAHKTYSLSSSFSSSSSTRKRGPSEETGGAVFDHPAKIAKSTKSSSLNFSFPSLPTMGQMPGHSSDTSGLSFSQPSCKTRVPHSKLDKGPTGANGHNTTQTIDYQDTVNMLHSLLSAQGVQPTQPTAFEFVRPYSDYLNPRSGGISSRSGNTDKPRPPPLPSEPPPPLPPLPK
Sequence of CDK9/cyclin T1 (P50750 whole entry): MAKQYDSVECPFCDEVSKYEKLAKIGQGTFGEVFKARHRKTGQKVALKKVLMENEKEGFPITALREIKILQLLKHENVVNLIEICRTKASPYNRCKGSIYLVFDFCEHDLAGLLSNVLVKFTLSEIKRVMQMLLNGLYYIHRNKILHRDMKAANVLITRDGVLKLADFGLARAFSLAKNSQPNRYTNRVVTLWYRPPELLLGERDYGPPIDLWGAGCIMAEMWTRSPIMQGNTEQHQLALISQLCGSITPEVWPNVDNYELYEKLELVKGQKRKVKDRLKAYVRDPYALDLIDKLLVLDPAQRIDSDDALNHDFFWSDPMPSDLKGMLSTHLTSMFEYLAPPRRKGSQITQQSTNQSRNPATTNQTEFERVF

CC[C@H](CO)Nc1nc(NCc2ccccc2)n2ncc(C(C)C)c2n1
GI50 [1]: 0.65 µM | TGI [1]: 9.26 µM | CC50 ([1]; read-out: LC50): > 100 µM | GI50 ([1]; read-out: pGI50 (converted)): 0.646 µM | CC50 ([1]; read-out: pLC50 (converted)): 100 µM | TGI ([1]; read-out: pTGI): 9.33 µM | Activity [2]: Dose-dependent effect | GI50 [3]: 1.38 µM | TGI [3]: 5.56 µM | CC50 ([3]; read-out: LC50): > 100 µM | GI50 ([3]; read-out: pGI50 (converted)): 1.12 µM | CC50 ([3]; read-out: pLC50 (converted)): 100 µM | TGI ([3]; read-out: pTGI): 5.5 µM | GI50 ([4]; read-out: GI50): 2.15 µM | CC50 [4, 10]: > 100 µM | TGI ([4]; read-out: TGI): 54.8 µM | GI50 ([4]; read-out: pGI50 (converted)): 2.45 µM | CC50 [4, 11]: 100 µM | TGI ([4]; read-out: pTGI (converted)): 55 µM | IC50 [5]: 0.07 µM | GI50 ([6]; read-out: GI50): 1.16 µM | CC50 [6, 10]: 16.9 µM | TGI ([6]; read-out: TGI): 3.82 µM | GI50 ([6]; read-out: pGI50 (converted)): 1.15 µM | CC50 [6, 11]: 17 µM | TGI ([6]; read-out: pTGI (converted)): 3.8 µM | GI50 ([7]; read-out: GI50): 2.41 µM | CC50 [7, 10]: 58.1 µM | TGI ([7]; read-out: TGI): 14.4 µM | GI50 ([7]; read-out: pGI50 (converted)): 3.02 µM | CC50 [7, 11]: 57.5 µM | TGI ([7]; read-out: pTGI (converted)): 14.5 µM | IC50 [8]: 0.043 µM | GI50 ([9]; read-out: GI50): 1.56 µM | CC50 [9, 10]: 36.1 µM | TGI ([9]; read-out: TGI): 5.29 µM | GI50 ([9]; read-out: pGI50 (converted)): 2.45 µM | CC50 [9, 11]: 36.3 µM | TGI ([9]; read-out: pTGI): 5.25 µM
